Measured values published in ChEMBL document CHEMBL1140502, “Synthesis of some tropane derivatives of anticipated activity on the reuptake of norepinephrine and/or serotonin” (2007).

Experiments:
Type in all cases: functional
Mus musculus [1] = test: Inhibition of NET-mediated norepinephrine-reuptake assessed as yohimbine induced mortality in intraperitoneally dosed mouse after 24 hrs; conditions: ip
Mus musculus [2] = test: Inhibition of SERT-mediated serotonin-reuptake assessed as 5-hydroxytryptophan induced mouse head twitch at 3.24 mM/kg, ip after 20 mins; parameters: scale not given: the % may be the effect or the level left
Mus musculus [3] = test: Inhibition of SERT-mediated serotonin-reuptake assessed as 5-hydroxytryptophan induced intraperitoneally dosed mouse head twitch after 20 mins; conditions: ip
Mus musculus [4] = test: Inhibition of SERT-mediated serotonin-reuptake assessed as 5-hydroxytryptophan induced mouse head twitch at 6.47 mM/kg, ip after 20 mins; parameters: scale not given: the % may be the effect or the level left
Mus musculus [5] = test: Inhibition of NET-mediated norepinephrine-reuptake assessed as yohimbine induced mortality in mouse at 12.94 mM/kg, ip after 24 hrs; parameters: scale not given: the % may be the effect or the level left
Mus musculus [6] = test: Inhibition of NET-mediated norepinephrine-reuptake assessed as yohimbine induced mortality in mouse at 6.47 mM/kg, ip after 24 hrs; parameters: scale not given: the % may be the effect or the level left
Mus musculus [7] = test: Inhibition of NET-mediated norepinephrine-reuptake assessed as yohimbine induced mortality in mouse at 25.89 mM/kg, ip after 24 hrs; parameters: scale not given: the % may be the effect or the level left
Mus musculus [8] = test: Inhibition of NET-mediated norepinephrine-reuptake assessed as yohimbine induced mortality in mouse at 19.42 mM/kg, ip after 24 hrs; parameters: scale not given: the % may be the effect or the level left
Mus musculus [9] = test: Inhibition of SERT-mediated serotonin-reuptake assessed as 5-hydroxytryptophan induced mouse head twitch at 12.94 mM/kg, ip after 20 mins; parameters: scale not given: the % may be the effect or the level left
Mus musculus [10] = species: Mus musculus; test: Selectivity ratio of ED50 for 5-HT reuptake in mouse to ED50 for norepinephrine reuptake in mouse
Mus musculus [11] = test: Inhibition of NET-mediated norepinephrine-reuptake assessed as yohimbine induced mortality in mouse at 3.24 mM/kg, ip after 24 hrs; parameters: scale not given: the % may be the effect or the level left
Mus musculus [12] = test: Inhibition of NET-mediated norepinephrine-reuptake assessed as yohimbine induced mortality in mouse at 9.71 mM/kg, ip after 24 hrs; parameters: scale not given: the % may be the effect or the level left
Mus musculus [13] = test: Inhibition of SERT-mediated serotonin-reuptake assessed as 5-hydroxytryptophan induced mouse head twitch at 1.62 mM/kg, ip after 20 mins; parameters: scale not given: the % may be the effect or the level left
Mus musculus [14] = test: Inhibition of SERT-mediated serotonin-reuptake assessed as 5-hydroxytryptophan induced mouse head twitch at 4.86 mM/kg, ip after 20 mins; parameters: scale not given: the % may be the effect or the level left

Compound | ED50 (Mus musculus [1]) [µmol/kg] | Activity (Mus musculus [2]) [%] | ED50 (Mus musculus [3]) [µmol/kg] | Activity (Mus musculus [4]) | Activity (Mus musculus [5]) [%] | Activity (Mus musculus [6]) [%] | Activity (Mus musculus [7]) | Activity (Mus musculus [8]) | Activity (Mus musculus [9]) [%] | Ratio ED50 (Mus musculus [10]) | Activity (Mus musculus [11]) [%] | Activity (Mus musculus [12]) [%] | Activity (Mus musculus [13]) [%] | Activity (Mus musculus [14]) [%]
CN1C2CCC1CC(Oc1ccc(C(F)(F)F)cc1)(c1ccccc1)C2 (stereo not drawn) | 11300 | 50 | 3.3 | 66.67% | 66.67 | 0 | 100% | 66.67% | 83.33 | 0.29 |  |  |  | 
CNCCC(Oc1ccc(C(F)(F)F)cc1)c1ccccc1 (stereo not drawn) [FLUOXETINE] | > 12900 | 16.67 | 5.09 | 50% | 0 | 0 |  |  | 100 | <0.39 | 0 |  |  | 
CN(C)CCCN1c2ccccc2CCc2ccc(Cl)cc21 [CLOMIPRAMINE] | 5780 | 50 | 2 | 83.3% |  |  |  |  |  | 0.35 | 16.67 | 66.67 | 50 | 
CN1C2CCC1CC(Oc1ccc(C#N)cc1)(c1ccc(F)cc1)C2 (stereo not drawn) | 5020 | 50 | 2.94 | Toxic | 100 | 66.67 |  |  |  | 0.59 | 16.67 |  | 33.33 | 66.67
CN(C)CCCC1(c2ccc(F)cc2)OCc2cc(C#N)ccc21 (stereo not drawn) [CITALOPRAM] | 13700 | 83.33 | 1.58 | 100% | 16.67 | 0 |  |  |  | 0.12 |  |  | 50 | 
CN1C2CCC1CC(Oc1ccc([N+](=O)[O-])cc1)(c1ccccc1)C2 (stereo not drawn) | 10300 | 50 | 2.94 | Toxic | 50 | 50 | Toxic |  |  | 0.29 | 0 |  | 33.33 | 66.67
CN1C2CCC1CC(Oc1ccc(C#N)cc1)(c1ccccc1)C2 (stereo not drawn) | 4080 | 33.33 | 4.44 | 66.67% | 83.33 | 50 |  |  |  | 1.08 | 50 |  | 16.67 | 
CN1C2CCC1CC(Oc1cccc(C(F)(F)F)c1)(c1ccccc1)C2 (stereo not drawn) | 53100 | 33.33 | 5.46 | 50% | 33.33 | 16.67 | Toxic | Toxic | 83.33 | 0.1 | 0 |  |  | 
CN1C2CCC1CC(Oc1ccc(Br)cc1)(c1ccccc1)C2 (stereo not drawn) | 11400 | 33.33 |  | 50% | 50 | 16.67 | 100% |  | 66.67 | 0.56 |  |  |  | 
CN1C2CCC1CC(Oc1ccc(Cl)cc1)(c1ccccc1)C2 (stereo not drawn) | 16100 | 33.33 | 4.72 | 66.67% | 33.33 | 33.33 | 66.67% |  | 83.33 | 0.29 |  |  |  | 
